Data reported in patent publication EP0380084A2, “Method for the inhibition of cell-cell and cell substratum interactions by the blocking of carbohydrate-carbohydrate interactions” (The Biomembrane Institute, priority 1989, dated 1990).
“Also recorded” adds a separate entry of the source.

What was measured:
[1] = system: mouse teratocarcinoma F9 cells; experiment: F9 cell aggregation assay (microscopy and Coulter Counter count of single cells); assay type: cell-based; conditions: for numbers of free (i.e., nonaggregated) cells: Coulter Counter, semiquantitative (Figure 1, panel e), 2 mM LFP II or LFP III; for self-aggregation of F9 cells: PBS with Ca2+ and Mg2+, 50 mM EDTA, 2 mM LFP II, 2 mM LFP III (Figure 1, panels a-d)
Experimental: More specifically, mouse teratocarcinoma F9 cells (Bernstine et al., Proc. Natl. Acad. Sci. USA 70:3899-3903, 1973) were grown on gelatin-coated plates in Dulbecco's modified Eagle's medium (DME) containing 4.5 g/l glucose and supplemented with 10% fetal calf serum (FCS) (v/v). The plates were prepared by incubating 0.01% gelatin in water for 30 min.
F9 cells grown to confluency on gelatin-coated plates were harvested using standard trypsin/EDTA solution and washed in DME containing 10% FCS. Next, the cells were carefully resuspended in a PBS solution (containing 0.9 mM Ca²⁺, 0.5 mM Mg²⁺ and 0.1 mM Mn²⁺) and supplemented with 0.1% FCS. The cell samples were mixed carefully before pipetting, and both manual counting and counting with a Coulter Counter (Model ZBI, Coulter Electronics Inc., Hialeah, Fla.) were performed. Adjustments of the aperture on the Coulter Counter were made in order to correlate with the manual counting of the single cells, excluding aggregated cells. For aggregation assays, cells were adjusted to a concentration of about 2.6 x 10⁷/ml. After 1 hr at 37°C, 50 µl aliquots were mixed with 50 µl of ethylenediaminetetraacetic acid (EDTA), LFP II, or LFP III solutions, and cells were incubated for an additional 15 min at 37°C. […] Before measurements on the Coulter Counter, the 100 µl volume sample was diluted to 10 ml and mixed carefully. In experiments were photomicrographs of cells were taken, approximately 0.8 x 10⁶ cells were placed in different PBS solutions (final volume 100 µl) in small Petri dishes. The cell suspension was then covered by mineral oil and incubated at 37°C for 30-60 min, and the process of cell aggregation was observed under the microscope.
The degree of F9 cell aggregation was semiquantitatively expressed by numbers of free (i.e., nonaggregated) cells (panel e), as determined by Coulter Counter with an appropriate aperture setting.

Le^x glycolipid = experiment: Interaction of Le^x liposomes with Le^x glycolipid coated on a plastic surface; assay type: binding
Experimental: A representative example of a carbohydrate-carbohydrate interaction is the recognition of Le^x(Galβ1 → 4[Fucα1 → 3]GlcNacβ1 → R) by Le^x per se. Le^x pentaosyl glycolipid (III³FucnLc₄) was prepared from human colonic adenocarcinoma.

Le^x liposomes = experiment: Self-aggregation of Le^x liposomes; assay type: binding
Experimental: A representative example of a carbohydrate-carbohydrate interaction is the recognition of Le^x(Galβ1 → 4[Fucα1 → 3]GlcNacβ1 → R) by Le^x per se. Le^x pentaosyl glycolipid (III³FucnLc₄) was prepared from human colonic adenocarcinoma. Within the present invention, Le^x is shown to be the structure recognizing Le^x. […] Fourth, the diffusability of tritium-labeled LFP III (from the lower to the upper Boyden chamber through a semipermeable membrane) was inhibited by Le^x liposomes. In addition, the Le^x-Le^x interaction was highly dependent on bivalent cations (Ca²⁺, Mg²⁺) and was inhibited by EDTA.

[2] = system: mouse T cell lymphoma L5178 AA12 cell line (high expressor of Gg3) to mouse B16 melanoma cell line (high expressor of GM₃); experiment: Adhesion of 3H-labeled L5178 AA12 lymphoma cells to B16 melanoma cell layer; assay type: cell-based; conditions: 10 mM EDTA, 5 mM sialyllactose, DH2 2 µg/ml, 2D4 5 µg/ml; 3H remaining after washing (Figure 2, panel c)
Experimental: Mouse B16 melanoma cells (which express a high level of GM₃) were purchased from American Type Culture Collection (Rockville, MD).
B16 cells (5x10⁴/ml), highly expressing GM₃, were grown on 24-well plates (Falcon, Oxnard, CA) for 24 hrs in DME. The majority of adherent cells were washed with serum-free medium. AA12 cells (Gg3 expressors) or AV27 cells (Gg3 non-expressors) were grown in DME containing 2% FCS, 1 g/l glucose, and 50 µCi ³H-GlcNH₂ for 24 hrs. The labeled AA12 (71,000 cpm/10⁵ cells) and AV27 (33,000 cpm/10⁵ cells) were then collected by centrifugation, suspended in DME containing 2% FCS and 1 g/l glucose, and the cell population adjusted to 6x10⁵/ml. This suspension (1 ml) was added to each well of a Falcon plate on which B16 melanoma cells were grown as adherent culture. The incubated plates were then washed 2x with serum-free fresh medium. L5178 lymphoma cells not adhering to B16 cells were washed out. The remaining cells in each plate were trypsinized, collected, and counted.
B16 melanoma cells grown in 24-well plates and L5178 lymphoma cells were treated respectively with DH2 solution (2 µg/ml) and 2D4 solution (5 µg/ml), left for 30 min at room temperature, washed with serum-­free fresh DME, and incubated with lymphoma cell suspension and melanoma cell layer for 5 hrs.

[3] = system: mouse T cell lymphoma L5178 AV27 cell line to B16 cells; conditions: 10 mM EDTA; 3H remaining after washing (Figure 2, panel c)
Experimental: Mouse B16 melanoma cells (which express a high level of GM₃) were purchased from American Type Culture Collection (Rockville, MD). Expression of GM₃ by B16 cells was defined by MAb DH2 (Dohi et al., Cancer Res. 48:5680-5685, 1988). Mouse T cell lymphoma line L5178 AA12 (which express a high level of Gg3, defined by MAb 2D4; Young et al., J. Exp. Med. 150:1008-1019, 1979) was cloned from 1C1 (Young et al., J. Immunol. 126:1-6, 1981). […] All cells were grown in RPMI 1640 containing 10% FCS.
B16 cells (5x10⁴/ml), highly expressing GM₃, were grown on 24-well plates (Falcon, Oxnard, CA) for 24 hrs in DME. The majority of adherent cells were washed with serum-free medium. AA12 cells (Gg3 expressors) or AV27 cells (Gg3 non-expressors) were grown in DME containing 2% FCS, 1 g/l glucose, and 50 µCi ³H-GlcNH₂ for 24 hrs. The labeled AA12 (71,000 cpm/10⁵ cells) and AV27 (33,000 cpm/10⁵ cells) were then collected by centrifugation, suspended in DME containing 2% FCS and 1 g/l glucose, and the cell population adjusted to 6x10⁵/ml. This suspension (1 ml) was added to each well of a Falcon plate on which B16 melanoma cells were grown as adherent culture. The incubated plates were then washed 2x with serum-free fresh medium. L5178 lymphoma cells not adhering to B16 cells were washed out. The remaining cells in each plate were trypsinized, collected, and counted. […]

Gg3/GM₃ interaction = conditions: antibody: pretreatment of the Gg3-coated solid phase

CC(=O)N[C@H]1[C@H](O[C@H]2[C@@H](O)[C@@H](CO)O[C@@H](O[C@H]3[C@H](O)[C@@H](O)C(O)O[C@@H]3CO)[C@@H]2O)O[C@H](CO)[C@@H](O[C@@H]2O[C@@H](C)[C@@H](O)[C@@H](O)[C@@H]2O)[C@@H]1O[C@@H]1O[C@H](CO)[C@H](O)[C@H](O)[C@H]1O (stereo partly drawn) [LFP II]
numbers of free (i.e., nonaggregated) cells [1]: much less
self-aggregation of F9 cells [1]: aggregation of F9 cells; also recorded: not by LFP II

CC(=O)NC1C(OC2C(O)C(CO)OC(OC3C(CO)OC(O)C(O)C3O)C2O)OC(CO)C(OC2OC(CO)C(O)C(O)C2O)C1OC1OC(C)C(O)C(O)C1O (stereo not drawn) [LFP III]
interaction of Le^x liposomes with immobilized Le^x glycolipid (Le^x glycolipid): specifically inhibited
numbers of free (i.e., nonaggregated) cells [1]: increased greatly
self-aggregation of F9 cells [1]: aggregation was inhibited
self-aggregation of Le^x liposomes (Le^x liposomes): specifically inhibited

sialyllactose
Adhesion of AA12 cells on B16 melanoma [2]: markedly inhibited

O=C(O)CN(CCN(CC(=O)O)CC(=O)O)CC(=O)O [EDTA, ethylenediaminetetraacetic acid]
Le^x-Le^x interaction (Le^x glycolipid; dependent on bivalent cations (Ca2+, Mg2+)): inhibited
Adhesion of AV27 cells to B16 cells [3]: greatly suppressed
Adhesion of AA12 cells on B16 melanoma [2]: greatly suppressed
self-aggregation of F9 cells [1]: aggregation did not occur; also recorded: inhibited
interaction of Gg3-coated solid phase with GM₃-containing liposomes (Gg3/GM₃ interaction): inhibited
